# Source: ChEMBL document CHEMBL4387783, “Bioactive triterpene glycosides from the fruit of Stauntonia hexaphylla and insights into the molecular mechanism of its inflammatory effects” (Bioorg Med Chem Lett, 2019)
# Activity calls are given as the source filed them. The rule behind the calls is not given here.
# Columns and labels:
# RAW264.7 [1] = assay: Antiinflammatory activity in mouse RAW264.7 cells assessed as inhibition of LPS-induced nitirc oxide production preincubated for 1 hr followed by LPS-stimulation and measured after 18 hrs by Griess assay; format: functional, cell-based
# RAW264.7 [2] = assay: Antiinflammatory activity in mouse RAW264.7 cells assessed as inhibition of LPS-induced iNOS expression at 1 to 5 uM preincubated for 1 hr followed by LPS-stimulation and measured after 16 hrs by Western blot analysis; format: functional, cell-based
# RAW264.7 [3] = assay: Antiinflammatory activity in mouse RAW264.7 cells assessed as inhibition of LPS-induced COX2 expression at 1 to 5 uM preincubated for 1 hr followed by LPS-stimulation and measured after 16 hrs by Western blot analysis; format: functional, cell-based
# [4] = Cytotoxicity against LPS-stimulated mouse RAW264.7 cells assessed as cell viability at antiinflammatory IC50 preincubated for 1 hr followed by LPS-stimulation and measured after 18 hrs by MTT assay relative to control; format: cell-based; settings: LPS-stimulated RAW264.7 cells, read-out: Activity
IC50 (RAW264.7 [1]),Structure (SMILES),also measured
1.3 to 1.33 µM,C[C@@H]1O[C@@H](O[C@H]2[C@H](O[C@H]3CC[C@]4(C)[C@H]5CC=C6[C@@H]7CC(C)(C)CC[C@]7(C(=O)O)CC[C@@]6(C)[C@]5(C)CC[C@H]4C3(C)C)OC[C@H](O)[C@@H]2O)[C@H](O)[C@H](O)[C@H]1O,inhibition (RAW264.7 [2]): Active; inhibition (RAW264.7 [3]): Active
> 50 µM,C[C@@H]1O[C@@H](O[C@H]2[C@H](O)[C@@H](O)[C@H](OC[C@H]3O[C@@H](OC(=O)[C@]45CCC(C)(C)C[C@H]4C4=CC[C@@H]6[C@@]7(C)CC[C@H](O[C@@H]8OC[C@H](O)[C@H](O)[C@H]8O[C@@H]8O[C@H](CO)[C@@H](O)[C@H](O)[C@H]8O)C(C)(C)[C@@H]7CC[C@@]6(C)[C@]4(C)CC5)[C@H](O)[C@@H](O)[C@@H]3O)O[C@@H]2CO)[C@H](O)[C@H](O)[C@H]1O,–
3.1 to 3.13 µM,CC1(C)CC[C@]2(C(=O)O)CC[C@]3(C)C(=CC[C@@H]4[C@@]5(C)CC[C@H](O[C@@H]6O[C@H](CO)[C@@H](O)[C@H](O)[C@H]6O[C@@H]6OC[C@H](O)[C@H](O)[C@H]6O)C(C)(C)[C@@H]5CC[C@]43C)[C@@H]2C1,–
1.5 µM,C[C@@H]1O[C@@H](O[C@H]2[C@H](O[C@H]3CC[C@]4(C)[C@H]5CC=C6[C@@H]7CC(C)(C)CC[C@]7(C(=O)O)CC[C@@]6(C)[C@]5(C)CC[C@H]4C3(C)C)O[C@H](CO)[C@@H](O)[C@@H]2O)[C@H](O)[C@H](O)[C@H]1O,viability at 18 h [4]: < 60%
> 50 µM,C[C@@H]1O[C@@H](O[C@H]2[C@H](O)[C@@H](O)[C@H](OC[C@H]3O[C@@H](OC(=O)[C@]45CCC(C)(C)C[C@H]4C4=CC[C@@H]6[C@@]7(C)CC[C@H](O[C@@H]8OC[C@H](O)[C@H](O[C@@H]9OC[C@H](O)[C@H](O)[C@H]9O)[C@H]8O)C(C)(C)[C@@H]7CC[C@@]6(C)[C@]4(C)CC5)[C@H](O)[C@@H](O)[C@@H]3O)O[C@@H]2CO)[C@H](O)[C@H](O)[C@H]1O,–
> 50 µM,CC1=CC(=O)CC(C)(C)[C@@]1(O)/C=C/[C@H](C)O,–
2.25 to 2.3 µM,CC1(C)CC[C@]2(C(=O)O)CC[C@]3(C)C(=CC[C@@H]4[C@@]5(C)CC[C@H](O[C@@H]6OC[C@H](O)[C@H](O)[C@H]6O)[C@@](C)(CO)[C@@H]5CC[C@]43C)[C@@H]2C1,–
> 50 µM,C[C@@H]1O[C@@H](O[C@H]2[C@H](O[C@H]3CC[C@]4(C)[C@H]5CC=C6[C@@H]7CC(C)(C)CC[C@]7(C(=O)O[C@@H]7O[C@H](CO[C@@H]8O[C@H](CO)[C@@H](O[C@@H]9O[C@@H](C)[C@H](O)[C@@H](O)[C@H]9O)[C@H](O)[C@H]8O)[C@@H](O)[C@H](O)[C@H]7O)CC[C@@]6(C)[C@]5(C)CC[C@H]4C3(C)C)OC[C@H](O)[C@@H]2O)[C@H](O)[C@H](O)[C@H]1O [HEDERASAPONIN B],–
13.4 µM,CC1(C)CC[C@]2(C(=O)O)CC[C@]3(C)C(=CC[C@@H]4[C@@]5(C)CC[C@H](O[C@@H]6O[C@H](CO)[C@@H](O)[C@H](O)[C@H]6O)[C@@](C)(CO)[C@@H]5CC[C@]43C)[C@@H]2C1 [Hederagenin-3-O-beta-D-glucopyranoside],–
15.2 µM,CC1(C)CC[C@]2(C(=O)O)CC[C@]3(C)C(=CC[C@@H]4[C@@]5(C)C[C@@H](O)[C@H](O)[C@@](C)(CO)[C@@H]5CC[C@]43C)[C@@H]2C1 [ARJUNOLIC ACID],–
4.2 to 4.21 µM,C[C@@H]1O[C@@H](O[C@H]2[C@H](O[C@H]3CC[C@@]4(C)[C@@H](CC[C@]5(C)[C@@H]4CC=C4[C@@H]6CC(C)(C)CC[C@]6(C(=O)O)CC[C@]45C)[C@]3(C)CO)O[C@H](CO)[C@@H](O)[C@@H]2O)[C@H](O)[C@H](O)[C@H]1O,–
> 50 µM,CC1(C)CC[C@]2(C(=O)O[C@@H]3O[C@H](CO[C@@H]4O[C@H](CO)[C@@H](O)[C@H](O)[C@H]4O)[C@@H](O)[C@H](O)[C@H]3O)CC[C@]3(C)C(=CC[C@@H]4[C@@]5(C)CC[C@H](O[C@@H]6OC[C@H](O)[C@H](O)[C@H]6O)[C@@](C)(CO)[C@@H]5CC[C@]43C)[C@@H]2C1,–
> 50 µM,CC1(C)CC[C@]2(C(=O)O)CC[C@]3(C)C(=CC[C@@H]4[C@@]5(C)CC[C@@H](O)[C@@](C)(CO)[C@@H]5CC[C@]43C)[C@@H]2C1,–
> 50 µM,C[C@@H]1O[C@@H](O[C@H]2[C@H](O[C@H]3CC[C@]4(C)[C@H]5CC=C6[C@@H]7CC(C)(C)CC[C@]7(C(=O)O)CC[C@@]6(C)[C@]5(C)CC[C@H]4C3(C)C)OC[C@H](O[C@@H]3O[C@H](CO)[C@@H](O)[C@H](O)[C@H]3O)[C@@H]2O)[C@H](O)[C@H](O)[C@H]1O[C@@H]1O[C@H](CO)[C@@H](O)[C@H](O)[C@H]1O,–
> 50 µM,C[C@@H]1O[C@@H](O[C@H]2[C@H](O[C@H]3CC[C@@]4(C)[C@@H](CC[C@]5(C)[C@@H]4CC=C4[C@@H]6CC(C)(C)CC[C@]6(C(=O)O[C@@H]6O[C@H](CO[C@@H]7O[C@H](CO)[C@@H](O[C@@H]8O[C@@H](C)[C@H](O)[C@@H](O)[C@H]8O)[C@H](O)[C@H]7O)[C@@H](O)[C@H](O)[C@H]6O)CC[C@]45C)[C@]3(C)CO)OC[C@H](O)[C@@H]2O)[C@H](O)[C@H](O)[C@H]1O [KALOPANAXSAPONIN B],–
4 to 4.04 µM,CC1(C)CC[C@]2(C(=O)O)CC[C@]3(C)C(=CC[C@@H]4[C@@]5(C)CC[C@H](O[C@@H]6OC[C@H](O)[C@H](O)[C@H]6O)C(C)(C)[C@@H]5CC[C@]43C)[C@@H]2C1,–
> 50 µM,COc1cc(CCC(=O)O)ccc1O [DIHYDROFERULIC ACID],–
> 50 µM,CC1(C)[C@H](O)CC[C@]2(C)[C@H]3CC=C4[C@@H]5C[C@](C)(CO)CC[C@]5(C(=O)O)CC[C@@]4(C)[C@]3(C)CC[C@@H]12,–
3.68 to 3.7 µM,C[C@@H]1O[C@@H](O[C@H]2[C@H](O)[C@@H](O)[C@H](OC[C@H]3O[C@@H](OC(=O)[C@]45CCC(C)(C)C[C@H]4C4=CC[C@@H]6[C@@]7(C)CC[C@H](O[C@@H]8OC[C@H](O)[C@H](O)[C@H]8O)[C@@](C)(CO)[C@@H]7CC[C@@]6(C)[C@]4(C)CC5)[C@H](O)[C@@H](O)[C@@H]3O)O[C@@H]2CO)[C@H](O)[C@H](O)[C@H]1O [CAULOSIDE D],viability at 18 h [4]: < 60%
> 50 µM,COC(=O)C(CC(=O)O)OC(=O)/C=C/c1ccc(O)c(O)c1 (stereo not drawn),–
> 50 µM,COc1cc(O)cc(OC)c1O[C@@H]1O[C@H](CO)[C@@H](O)[C@H](O)[C@H]1O [LEONURISIDE],–
> 50 µM,CC1(C)CC[C@]2(C(=O)O[C@@H]3O[C@H](CO[C@@H]4O[C@H](CO)[C@@H](O)[C@H](O)[C@H]4O)[C@@H](O)[C@H](O)[C@H]3O)CC[C@]3(C)C(=CC[C@@H]4[C@@]5(C)CC[C@H](O[C@@H]6O[C@H](CO)[C@@H](O)[C@H](O)[C@H]6O)C(C)(C)[C@@H]5CC[C@]43C)[C@@H]2C1,–
> 50 µM,C[C@@H]1O[C@@H](O[C@H]2[C@H](O)[C@@H](O)[C@H](OC[C@H]3O[C@@H](OC(=O)[C@]45CCC(C)(C)C[C@H]4C4=CC[C@@H]6[C@@]7(C)CC[C@H](O)[C@@](C)(CO)[C@@H]7CC[C@@]6(C)[C@]4(C)CC5)[C@H](O)[C@@H](O)[C@@H]3O)O[C@@H]2CO)[C@H](O)[C@H](O)[C@H]1O [KIZUTA CIRENSENOSIDE O SAPONIN K3],–
> 50 µM,CC1(C)CC[C@]2(C(=O)O[C@@H]3O[C@H](CO[C@@H]4O[C@H](CO)[C@@H](O)[C@H](O)[C@H]4O)[C@@H](O)[C@H](O)[C@H]3O)CC[C@]3(C)C(=CC[C@@H]4[C@@]5(C)CC[C@H](O[C@@H]6OC[C@H](O)[C@H](O)[C@H]6O[C@@H]6O[C@H](CO)[C@@H](O)[C@H](O)[C@H]6O)C(C)(C)[C@@H]5CC[C@]43C)[C@@H]2C1,–
> 50 µM,C[C@@H]1O[C@@H](O[C@H]2[C@H](O[C@H]3CC[C@]4(C)[C@H]5CC=C6[C@@H]7CC(C)(C)CC[C@]7(C(=O)O[C@@H]7O[C@H](CO)[C@@H](O)[C@H](O)[C@H]7O)CC[C@@]6(C)[C@]5(C)CC[C@H]4C3(C)C)OC[C@H](O)[C@@H]2O)[C@H](O)[C@H](O)[C@H]1O,–
0.01 µM,C[C@@H]1C[C@H]2[C@@H]3CCC4=CC(=O)C=C[C@]4(C)[C@@]3(F)[C@@H](O)C[C@]2(C)[C@@]1(O)C(=O)CO [DEXAMETHASONE],–

Structure (SMILES),IC50 (RAW264.7 [1]),also measured
C[C@@H]1O[C@@H](O[C@H]2[C@H](O[C@H]3CC[C@@]4(C)[C@@H](CC[C@]5(C)[C@@H]4CC=C4[C@@H]6CC(C)(C)CC[C@]6(C(=O)O)CC[C@]45C)[C@]3(C)CO)OC[C@H](O)[C@@H]2O)[C@H](O)[C@H](O)[C@H]1O [ALPHA-HEDERIN],1.1 µM,inhibition (RAW264.7 [2]): Active; inhibition (RAW264.7 [3]): Active
